The source of these data is patent publication US10519177B2, “Heterocyclic compounds and uses thereof” (Plexxikon Inc., priority 2013, dated 2019).

One experiment concerns MV-4-11 cells. The experiment in a line: Oncology cell growth assay MV-4-11 (CellTiter Glo). The format is cell-based. Particulars: Homo sapiens, MV4-11, 72 h; MV-4-11, 3d growth; read-out: Cell activity (IC50 μM) MV-4-11 3d-Growth. The gist of the method:
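Growth read by CellTiter Glo luminescence after 72 h compound treatment of MLL-AF4-bearing MV-4-11 cells (3000/well). Titration: 8 points, 1:3 steps, maximum 10 μM, 0.2% DMSO final. Data normalized to DMSO wells, four-parameter fit gives pIC50.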

The target of the next experiment is BRD4-BD12 (1-477) (Homo sapiens (Human), UniProt O60885). The experiment is described as follows: Alphascreen binding assay BRD4-BD12. Particulars: BRD4(1 2) H4; read-out: Biochemical activity (IC50 μM) BRD4(1 2) H4. The gist of the method: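 In this competition format, compounds displace a biotinylated tetra-acetyl H4 peptide from E. coli-expressed human BRD4 bromodomain constructs captured on nickel chelate beads. The reaction runs at pH 7.5 with 2 mM DTT and detergent for 1 h at room temperature before a 30 min bead step.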
On the technique in general: In Alpha technology, singlet oxygen from a donor bead excites a nearby acceptor bead.

In another experiment the test system is bromodomain. The experiment in a line: at least one of the bromodomain cell assays of Example 57. The format is cell-based. Conditions: at least one of the bromodomain cell assays described in Example 57; read-out: IC50 in at least one of the bromodomain cell assays.

What is called IC50 is the concentration that gives 50% inhibition. Take `Cc1noc(C)c1-c1cnc2c(-c3ccc(OCC(=O)O)cc3)cn(CC3(F)CCCCC3)c2c1` [P-0503, 2-[4-[6-(3,5-dimethylisoxazol-4-yl)-1-[(1-fluorocyclohexyl)methyl]pyrrolo[3,2-b]pyridin-3-yl]phenoxy]acetic acid]: the values for the 50% inhibitory concentration (IC50) in the experiment on MV-4-11 cells, at BRD4-BD12 (1-477) and in the experiment with bromodomain were less than 1 µM, less than 1 µM and less than 10000 nM, respectively.
Turning to `COc1cc(-c2cn(CC3(F)CCCCC3)c3cc(-c4c(C)noc4C)cnc23)ccc1C(=O)O` [P-0504, 4-[6-(3,5-dimethylisoxazol-4-yl)-1-[(1-fluorocyclohexyl)methyl]pyrrolo[3,2-b]pyridin-3-yl]-2-methoxy-benzoic acid], the results for the IC50 in the experiment on MV-4-11 cells, at BRD4-BD12 (1-477) and in the experiment on bromodomain were less than 1 µM, less than 1 µM and less than 10000 nM, respectively.
`Cc1noc(C)c1-c1cnc2c(-c3ccc4c(c3)CNC4=O)cn(CC3(F)CCCCC3)c2c1` [P-0505, 5-[6-(3,5-dimethylisoxazol-4-yl)-1-[(1-fluorocyclohexyl)methyl]pyrrolo[3,2-b]pyridin-3-yl]isoindolin-1-one]: the IC50 with MV-4-11 cells was less than 1 µM; on BRD4-BD12 (1-477), less than 1 µM; with bromodomain, less than 10000 nM.
As for `Cc1cc(-c2cn(CC3(F)CCCCC3)c3cc(-c4c(C)noc4C)cnc23)ccc1C(=O)O` [P-0506, 4-[6-(3,5-dimethylisoxazol-4-yl)-1-[(1-fluorocyclohexyl)methyl]pyrrolo[3,2-b]pyridin-3-yl]-2-methyl-benzoic acid], the concentration for half-maximal inhibition (IC50) was less than 1 µM in the experiment with MV-4-11 cells, less than 1 µM on BRD4-BD12 (1-477) and less than 10000 nM in the experiment with bromodomain.
Take `Cc1noc(C)c1-c1cnc2c(-c3ccc(C4(C#N)CC4)cc3)cn(CC3CCC(F)(F)CC3)c2c1` [P-0507, 1-[4-[1-[(4,4-difluorocyclohexyl)methyl]-6-(3,5-dimethylisoxazol-4-yl)pyrrolo[3,2-b]pyridin-3-yl]phenyl]cyclopropanecarbonitrile]: the IC50 in the experiment on MV-4-11 cells was less than 1 µM; on BRD4-BD12 (1-477) it was less than 1 µM; in the experiment on bromodomain it was less than 10000 nM.
In the case of `COC(=O)c1ccc(-c2cn([C@H](C)c3ccccn3)c3cc(-c4c(C)noc4C)cnc23)cc1` [P-0508, methyl 4-[6-(3,5-dimethylisoxazol-4-yl)-1-[(1R)-1-(2-pyridyl)ethyl]pyrrolo[3,2-b]pyridin-3-yl]benzoate], the half-maximal inhibitory concentration (IC50) in the experiment with MV-4-11 cells was less than 1 µM; at BRD4-BD12 (1-477), less than 1 µM; in the experiment with bromodomain, less than 10000 nM.
Consider `COC(=O)c1ccc(-c2cn([C@@H](C)c3ccccn3)c3cc(-c4c(C)noc4C)cnc23)cc1` [P-0509, methyl 4-[6-(3,5-dimethylisoxazol-4-yl)-1-[(1S)-1-(2-pyridyl)ethyl]pyrrolo[3,2-b]pyridin-3-yl]benzoate], for which the concentration for half-maximal inhibition (IC50) with MV-4-11 cells was less than 1 µM; on BRD4-BD12 (1-477), less than 1 µM; in the experiment with bromodomain, less than 10000 nM.
For the molecule `Cc1noc(C)c1-c1cnc2c(-c3cnn(CC(F)(F)F)c3)cn([C@@H](C)c3ccccn3)c2c1` [P-0512, 3,5-dimethyl-4-[1-[(1S)-1-(2-pyridyl)ethyl]-3-[1-(2,2,2-trifluoroethyl)pyrazol-4-yl]pyrrolo[3,2-b]pyridin-6-yl]isoxazole], the IC50 in the experiment on MV-4-11 cells is less than 1 µM; at BRD4-BD12 (1-477), less than 1 µM; in the experiment with bromodomain it was less than 10000 nM.
Take `Cc1noc(C)c1-c1cnc2c(-c3cnn(CC(F)(F)F)c3)cn([C@H](C)c3ccccn3)c2c1` [P-0513, 3,5-dimethyl-4-[1-[(1R)-1-(2-pyridyl)ethyl]-3-[1-(2,2,2-trifluoroethyl)pyrazol-4-yl]pyrrolo[3,2-b]pyridin-6-yl]isoxazole]: the results for the IC50 in the experiment on MV-4-11 cells, on BRD4-BD12 (1-477) and in the experiment on bromodomain were less than 1 µM, less than 1 µM and less than 10000 nM, respectively.
Turning to `Cc1noc(C)c1-c1cnc2c(-c3cnn(C(F)F)c3)cn([C@@H](C)c3ccccn3)c2c1` [P-0514, 4-[3-[1-(difluoromethyl)pyrazol-4-yl]-1-[(1S)-1-(2-pyridyl)ethyl]pyrrolo[3,2-b]pyridin-6-yl]-3,5-dimethyl-isoxazole], the half-maximal inhibitory concentration (IC50) was less than 1 µM in the experiment on MV-4-11 cells, less than 1 µM on BRD4-BD12 (1-477) and less than 10000 nM in the experiment on bromodomain.
Regarding `Cc1noc(C)c1-c1cnc2c(-c3cnn(C(F)F)c3)cn([C@H](C)c3ccccn3)c2c1` [P-0515, 4-[3-[1-(difluoromethyl)pyrazol-4-yl]-1-[(1R)-1-(2-pyridyl)ethyl]pyrrolo[3,2-b]pyridin-6-yl]-3,5-dimethyl-isoxazole], the results for the half-inhibitory concentration (IC50) with MV-4-11 cells, at BRD4-BD12 (1-477) and with bromodomain were less than 1 µM, less than 1 µM and less than 10000 nM, respectively.
Turning to `Cc1noc(C)c1-c1cnc2c(-c3cnn(C)c3)cn([C@@H](C)c3ccccn3)c2c1` [P-0516, 3,5-dimethyl-4-[3-(1-methylpyrazol-4-yl)-1-[(1S)-1-(2-pyridyl)ethyl]pyrrolo[3,2-b]pyridin-6-yl]isoxazole], the IC50 in the experiment with MV-4-11 cells is less than 1 µM; at BRD4-BD12 (1-477), less than 1 µM; with bromodomain it was less than 10000 nM.
Regarding `CCn1cc(-c2cnc3ccn(CC4CCC(F)(F)CC4)c3c2)ccc1=O` [P-0517, 5-[1-[(4,4-difluorocyclohexyl)methyl]pyrrolo[3,2-b]pyridin-6-yl]-1-ethyl-pyridin-2-one], the concentration for half-maximal inhibition (IC50) with MV-4-11 cells was 1 to 10 µM; at BRD4-BD12 (1-477) it was 1 to 10 µM; in the experiment on bromodomain, less than 10000 nM.
Consider `CC(C)n1cc(-c2cnc3ccn(CC4CCC(F)(F)CC4)c3c2)ccc1=O` [P-0518, 5-[1-[(4,4-difluorocyclohexyl)methyl]pyrrolo[3,2-b]pyridin-6-yl]-1-isopropyl-pyridin-2-one], for which the concentration for half-maximal inhibition (IC50) with MV-4-11 cells was 10 to 200 µM; at BRD4-BD12 (1-477), 1 to 10 µM; in the experiment on bromodomain it was less than 10000 nM.
Taken in the same sequence, the figures for `Cc1noc(C)c1-c1cnc2c(-c3cnn(C)c3)cn([C@H](C)c3ccccn3)c2c1` [P-0519, 3,5-dimethyl-4-[3-(1-methylpyrazol-4-yl)-1-[(1R)-1-(2-pyridyl)ethyl]pyrrolo[3,2-b]pyridin-6-yl]isoxazole] were less than 1 µM, less than 1 µM and less than 10000 nM.
Taken in the same sequence, the figures for `Cc1noc(C)c1-c1cnc2c(-c3ccc(N)nc3)cn(CC3(F)CCCCC3)c2c1` [P-0520, 5-[6-(3,5-dimethylisoxazol-4-yl)-1-[(1-fluorocyclohexyl)methyl]pyrrolo[3,2-b]pyridin-3-yl]pyridin-2-amine] were less than 1 µM, less than 1 µM and less than 10000 nM.
The like results for `Cc1noc(C)c1-c1cnc2c(-c3ccc(NC(N)=O)cc3)cn(CC3(F)CCCCC3)c2c1` [P-0521, [4-[6-(3,5-dimethylisoxazol-4-yl)-1-[(1-fluorocyclohexyl)methyl]pyrrolo[3,2-b]pyridin-3-yl]phenyl]urea] were, in that order, less than 1 µM, less than 1 µM and less than 10000 nM.
In the case of `CNC(=O)Nc1ccc(-c2cn(CC3(F)CCCCC3)c3cc(-c4c(C)noc4C)cnc23)cc1` [P-0522, 1-[4-[6-(3,5-dimethylisoxazol-4-yl)-1-[(1-fluorocyclohexyl)methyl]pyrrolo[3,2-b]pyridin-3-yl]phenyl]-3-methyl-urea], the IC50 with MV-4-11 cells is less than 1 µM; at BRD4-BD12 (1-477), less than 1 µM; with bromodomain, less than 10000 nM.
`Cc1noc(C)c1-c1cnc2c(-c3ccc(O)cc3)cn(CC3(F)CCCCC3)c2c1` [P-0523, 4-[6-(3,5-dimethylisoxazol-4-yl)-1-[(1-fluorocyclohexyl)methyl]pyrrolo[3,2-b]pyridin-3-yl]phenol]: the results for the half-inhibitory concentration (IC50) in the experiment with MV-4-11 cells, on BRD4-BD12 (1-477) and with bromodomain were less than 1 µM, less than 1 µM and less than 10000 nM, respectively.
As for `Cc1noc(C)c1-c1cnc2c(-c3ccc(O)c(Cl)c3)cn(CC3(F)CCCCC3)c2c1` [P-0524], the IC50 is less than 1 µM in the experiment with MV-4-11 cells, less than 1 µM at BRD4-BD12 (1-477) and less than 10000 nM in the experiment on bromodomain.
Turning to `Cc1ccc(-c2cn(CC3(F)CCCCC3)c3cc(-c4c(C)noc4C)cnc23)cc1C(=O)O` [P-0525, 5-[6-(3,5-dimethylisoxazol-4-yl)-1-[(1-fluorocyclohexyl)methyl]pyrrolo[3,2-b]pyridin-3-yl]-2-methyl-benzoic acid], the IC50 in the experiment on MV-4-11 cells was less than 1 µM; at BRD4-BD12 (1-477) it was less than 1 µM; in the experiment on bromodomain it was less than 10000 nM.
On to `Cc1noc(C)c1-c1cnc2c(-c3ccc(C(=O)OC(C)(C)C)cc3)cn(C(CC#N)C3CCCC3)c2c1` (stereo not drawn) [P-0526, tert-butyl 4-[1-(2-cyano-1-cyclopentyl-ethyl)-6-(3,5-dimethylisoxazol-4-yl)pyrrolo[3,2-b]pyridin-3-yl]benzoate], for which the values for the half-inhibitory concentration (IC50) with MV-4-11 cells, at BRD4-BD12 (1-477) and in the experiment with bromodomain were less than 1 µM, less than 1 µM and less than 10000 nM, respectively.
Turning to `Cc1noc(C)c1-c1cnc2c(-c3ccc(C(=O)O)cc3)cn(C(CC#N)C3CCCC3)c2c1` (stereo not drawn) [P-0527, 4-[1-(2-cyano-1-cyclopentyl-ethyl)-6-(3,5-dimethylisoxazol-4-yl)pyrrolo[3,2-b]pyridin-3-yl]benzoic acid], the IC50 with MV-4-11 cells was less than 1 µM; on BRD4-BD12 (1-477), less than 1 µM; in the experiment on bromodomain, less than 10000 nM.
For the molecule `Cc1noc(C)c1-c1cnc2c(I)cn(Cc3cccnn3)c2c1` [P-0528, 4-[3-iodo-1-(pyridazin-3-ylmethyl)pyrrolo[3,2-b]pyridin-6-yl]-3,5-dimethyl-isoxazole], the figures for the IC50 with MV-4-11 cells, at BRD4-BD12 (1-477) and with bromodomain were less than 1 µM, less than 1 µM and less than 10000 nM, respectively.
For the molecule `COC(=O)CCc1ccc(-c2cn(CC3CCC(F)(F)CC3)c3cc(-c4c(C)noc4C)cnc23)cc1` [P-0529, methyl 3-[4-[1-[(4,4-difluorocyclohexyl)methyl]-6-(3,5-dimethylisoxazol-4-yl)pyrrolo[3,2-b]pyridin-3-yl]phenyl]propanoate], the IC50 with MV-4-11 cells is less than 1 µM; on BRD4-BD12 (1-477) it was less than 1 µM; with bromodomain, less than 10000 nM.
